Holding throughout (format): cell-based
The target in experiment [1] is T1, protein kinases (human kinome) (Homo sapiens, UniProt O14976).
T1 sequence (O14976 1-1311): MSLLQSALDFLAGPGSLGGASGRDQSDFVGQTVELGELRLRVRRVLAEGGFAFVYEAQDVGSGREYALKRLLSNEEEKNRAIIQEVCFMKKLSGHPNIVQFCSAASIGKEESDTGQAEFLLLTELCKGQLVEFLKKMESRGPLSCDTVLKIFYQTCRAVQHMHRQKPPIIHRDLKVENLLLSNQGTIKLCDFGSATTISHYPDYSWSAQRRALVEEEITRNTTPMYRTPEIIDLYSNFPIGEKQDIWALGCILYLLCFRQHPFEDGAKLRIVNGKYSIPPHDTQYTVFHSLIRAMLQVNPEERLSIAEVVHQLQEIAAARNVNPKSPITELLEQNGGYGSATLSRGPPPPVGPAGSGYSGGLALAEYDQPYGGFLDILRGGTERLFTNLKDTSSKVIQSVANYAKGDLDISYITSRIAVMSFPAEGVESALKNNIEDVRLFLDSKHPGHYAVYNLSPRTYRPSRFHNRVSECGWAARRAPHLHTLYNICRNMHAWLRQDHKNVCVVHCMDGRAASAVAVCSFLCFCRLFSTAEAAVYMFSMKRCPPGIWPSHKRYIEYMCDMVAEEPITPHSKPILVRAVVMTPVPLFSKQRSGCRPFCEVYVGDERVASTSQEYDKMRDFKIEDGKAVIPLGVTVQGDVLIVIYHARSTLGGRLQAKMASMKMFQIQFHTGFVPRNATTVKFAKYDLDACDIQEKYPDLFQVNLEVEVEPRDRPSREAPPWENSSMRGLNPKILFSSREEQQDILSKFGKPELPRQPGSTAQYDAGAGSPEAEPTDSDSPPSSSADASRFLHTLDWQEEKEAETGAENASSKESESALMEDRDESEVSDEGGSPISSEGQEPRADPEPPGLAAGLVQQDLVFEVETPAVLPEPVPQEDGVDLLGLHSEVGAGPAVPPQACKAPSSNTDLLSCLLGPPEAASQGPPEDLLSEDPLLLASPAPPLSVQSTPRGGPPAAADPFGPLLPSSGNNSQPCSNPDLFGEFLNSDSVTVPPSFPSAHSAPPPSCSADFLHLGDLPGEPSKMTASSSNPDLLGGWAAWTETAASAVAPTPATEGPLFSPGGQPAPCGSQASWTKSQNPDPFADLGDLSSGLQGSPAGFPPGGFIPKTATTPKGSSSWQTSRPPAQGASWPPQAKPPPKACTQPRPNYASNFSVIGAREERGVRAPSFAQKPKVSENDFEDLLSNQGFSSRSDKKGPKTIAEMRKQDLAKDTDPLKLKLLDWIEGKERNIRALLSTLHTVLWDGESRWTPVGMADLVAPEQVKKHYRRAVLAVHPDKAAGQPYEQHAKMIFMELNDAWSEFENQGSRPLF
From the text:
(§1) Although development of targeted protein degraders requires a POI binder, among already-liganded proteins such as kinases, it was hypothesized that different targets would have a different propensity for current approaches to degrader-mediated destruction, which was termed ‘degradability’. […] It was rationalized that the probability of identifying the same kinase as a false positive in multiple treatments is low, therefore this analysis served to also assess the robustness of our data and subsequent interpretations. […] Overall, 62 protein kinases were degraded in more than 10 independent treatments, and remarkably, 9 of these (CDK4, AURKA, FER, WEE1, BLK. LIMK2, CDK6, GAK, LIMK1) were each degraded in at least 40 of the 154 independent treatments, emphasizing their predisposition to induced degradation (FIG. 1G; Appendix I).
(§2) Next, the frequency of degradation assessment was corrected for over-representation of molecules in the full dataset by omitting replicate profiling of compounds under different experimental conditions, to remove any bias. […] Unsurprisingly, the top degradable kinases mirror those from the previous analysis (CDK4, AURKA, FER, WEE1, BLK), confirming that in sufficiently large datasets, even with over-representation of certain molecules, frequency of degradation is a good measure of general tractability.

The target of experiment [2] is protein kinases (human kinome) (Homo sapiens, UniProt Q2M2I8). The following applies: experiment wp088.
Source text: as §1, §2

Experiment [3] concerns protein kinases (human kinome). Conditions: for kinases the bifunctional compound degrades: as stated for the structure in the embodiments; for Kinase hits: kinases significantly downregulated vs DMSO (fold change cutoff −1.25, P-value<0.01), ≤8 h, 0.1-5 μM degrader, 7 cell lines; for Total no. kinase hits: number of degraded kinases per library compound.
Source text: as §1, §2

For experiment [4], the target named is protein kinases (human kinome) (Homo sapiens, UniProt P16591).
Source text: as §1, §2

Experiment [5] addresses protein kinases (human kinome) (Homo sapiens, UniProt P30291). Conditions: WEE1 P30291-1; experiment wp076; degrader vs DMSO.
Source text: as §1, §2

Read-outs that look alike come from different tables or passages of the source.

Sequence of protein kinases (human kinome) (Homo sapiens, UniProt Q2M2I8) (Q2M2I8 whole entry): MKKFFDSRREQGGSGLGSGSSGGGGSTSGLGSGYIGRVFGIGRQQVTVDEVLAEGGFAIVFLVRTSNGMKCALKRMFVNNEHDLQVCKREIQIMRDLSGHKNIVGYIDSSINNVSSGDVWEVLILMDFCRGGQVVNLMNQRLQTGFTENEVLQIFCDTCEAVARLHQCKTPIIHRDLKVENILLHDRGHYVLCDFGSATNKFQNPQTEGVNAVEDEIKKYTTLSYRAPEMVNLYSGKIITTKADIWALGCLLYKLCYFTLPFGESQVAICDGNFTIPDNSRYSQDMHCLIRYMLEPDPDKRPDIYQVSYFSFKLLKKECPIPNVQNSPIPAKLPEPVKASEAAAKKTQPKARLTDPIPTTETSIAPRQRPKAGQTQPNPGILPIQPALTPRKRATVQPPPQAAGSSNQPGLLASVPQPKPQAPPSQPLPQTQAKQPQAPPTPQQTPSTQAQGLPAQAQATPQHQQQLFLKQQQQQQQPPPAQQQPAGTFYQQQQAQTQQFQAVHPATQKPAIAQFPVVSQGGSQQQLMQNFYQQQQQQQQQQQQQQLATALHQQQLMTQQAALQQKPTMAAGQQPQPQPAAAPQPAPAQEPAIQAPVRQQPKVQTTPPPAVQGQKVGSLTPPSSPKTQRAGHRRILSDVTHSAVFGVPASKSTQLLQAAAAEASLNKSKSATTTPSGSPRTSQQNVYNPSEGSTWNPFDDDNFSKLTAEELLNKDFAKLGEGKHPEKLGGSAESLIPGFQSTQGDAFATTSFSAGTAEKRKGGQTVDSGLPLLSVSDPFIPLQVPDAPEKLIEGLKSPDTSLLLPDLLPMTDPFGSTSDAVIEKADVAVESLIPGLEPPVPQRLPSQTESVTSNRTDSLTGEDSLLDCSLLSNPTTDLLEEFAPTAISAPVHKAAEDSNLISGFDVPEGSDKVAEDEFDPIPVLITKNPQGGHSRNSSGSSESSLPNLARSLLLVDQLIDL
Sequence of protein kinases (human kinome) (Homo sapiens, UniProt P16591) (P16591 whole entry): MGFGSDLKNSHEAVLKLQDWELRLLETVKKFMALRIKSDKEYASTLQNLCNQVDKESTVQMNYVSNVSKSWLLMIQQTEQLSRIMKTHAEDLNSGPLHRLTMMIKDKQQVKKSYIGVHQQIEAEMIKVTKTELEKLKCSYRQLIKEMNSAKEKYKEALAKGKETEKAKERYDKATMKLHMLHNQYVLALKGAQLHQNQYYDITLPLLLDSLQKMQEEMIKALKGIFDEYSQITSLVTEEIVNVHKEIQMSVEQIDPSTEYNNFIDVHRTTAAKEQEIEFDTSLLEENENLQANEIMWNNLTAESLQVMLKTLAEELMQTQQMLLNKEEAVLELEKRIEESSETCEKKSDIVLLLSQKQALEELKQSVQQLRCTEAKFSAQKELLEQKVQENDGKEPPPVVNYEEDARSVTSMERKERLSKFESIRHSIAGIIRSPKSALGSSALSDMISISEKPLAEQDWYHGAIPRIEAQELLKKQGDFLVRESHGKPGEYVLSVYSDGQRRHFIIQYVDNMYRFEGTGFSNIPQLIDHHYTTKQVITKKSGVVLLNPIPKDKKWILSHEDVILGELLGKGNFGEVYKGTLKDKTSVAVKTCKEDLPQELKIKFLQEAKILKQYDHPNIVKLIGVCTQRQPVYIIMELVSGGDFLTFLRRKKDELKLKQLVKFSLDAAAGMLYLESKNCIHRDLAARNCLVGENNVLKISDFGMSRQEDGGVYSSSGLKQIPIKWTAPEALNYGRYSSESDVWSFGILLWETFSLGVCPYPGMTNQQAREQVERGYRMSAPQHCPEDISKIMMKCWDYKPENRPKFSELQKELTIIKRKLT
Sequence of protein kinases (human kinome) (Homo sapiens, UniProt P30291) (P30291 whole entry): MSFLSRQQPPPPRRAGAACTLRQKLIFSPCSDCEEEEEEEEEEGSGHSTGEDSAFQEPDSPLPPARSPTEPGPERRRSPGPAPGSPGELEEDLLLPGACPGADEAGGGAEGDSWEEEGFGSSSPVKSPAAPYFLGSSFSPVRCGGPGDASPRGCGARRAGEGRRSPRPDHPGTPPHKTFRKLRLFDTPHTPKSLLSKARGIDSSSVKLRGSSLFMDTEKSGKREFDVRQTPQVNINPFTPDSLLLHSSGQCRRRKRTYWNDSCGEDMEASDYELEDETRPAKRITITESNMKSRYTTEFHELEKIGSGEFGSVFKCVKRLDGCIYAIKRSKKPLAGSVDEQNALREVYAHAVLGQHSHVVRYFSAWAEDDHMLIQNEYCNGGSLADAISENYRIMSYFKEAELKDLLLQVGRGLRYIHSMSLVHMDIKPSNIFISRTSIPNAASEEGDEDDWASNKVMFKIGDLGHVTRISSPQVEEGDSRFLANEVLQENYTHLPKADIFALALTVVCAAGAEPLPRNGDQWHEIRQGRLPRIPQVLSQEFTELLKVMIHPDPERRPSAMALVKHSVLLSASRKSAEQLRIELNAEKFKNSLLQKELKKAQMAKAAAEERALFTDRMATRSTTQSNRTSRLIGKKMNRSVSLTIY

For the compound `Cc1cnc(Nc2ccc(N3CCN(CCOCCOCCC(=O)N[C@H](C(=O)N4C[C@H](O)C[C@H]4C(=O)N[C@@H](C)c4ccc(-c5scnc5C)cc4)C(C)(C)C)CC3)cc2)nc1Nc1cccc(S(=O)(=O)NC(C)(C)C)c1` [JWG.122], the “logFC of GAK (O14976)” value in experiment [1] (Experiment wp088, down) is −0.3586. In addition, the “logFC GAK” value in experiment [1] (GAK (O14976), direction down, experiment wp088) is −0.3586. Further, the “logFC AAK1” value in experiment [2] (AAK1 (Q2M218-1), down) was −0.6335; in experiment [2] (AAK1, accession Q2M218-1, direction of change down), −0.6335.
Turning to `Cc1cc(Nc2ncc(Cl)c(Nc3ccccc3S(=O)(=O)C(C)C)n2)c(OC(C)C)cc1C1CCN(CCOCCOCCNC(=O)CNc2cccc3c2C(=O)N(C2CCC(=O)NC2=O)C3=O)CC1` (stereo not drawn) [TL13.112], the “logFC PTK2 (Q05397-5)” value in experiment [3] (Experiment wp012, direction of change down) was −0.6217. The “logFC RPS6KA1” value in experiment [3] (RPS6KA1 (Q15418-2), experiment wp012) is −0.7875. Moreover, the “logFC of FER (P16591-1)” value in experiment [4] (Experiment wp012, down) was −0.5247.
In the case of `Nc1ncnc2c1c(-c1ccc(Oc3ccccc3)cc1)nn2[C@H]1CC[C@H](N2CCN(CCCCCCNC(=O)COc3cccc4c3C(=O)N(C3CCC(=O)NC3=O)C4=O)CC2)CC1` (stereo partly drawn) [SB1-G-200], in experiment [3], the “kinases the bifunctional compound degrades” value is “ABL1, ABL2, BLK, CSNK1E. CSK, FYN, LATS1, LCK, LIMK1, MAP2K5, and SRC”; the Kinase hits result is given as “ABL1, ABL2, BLK, CSNK1E, CSK, FYN, LATS1, LCK, LIMK1, MAP2K5, SRC”; the “Total no. kinase hits” value came to 11.
For the compound `Cc1cc(Nc2ncc(Cl)c(Nc3ccccc3S(=O)(=O)C(C)C)n2)c(OC(C)C)cc1C1CCN(CCOCCOCCNC(=O)CNc2cccc3c2C(=O)N(C2CCC(=O)NC2=O)C3=O)CC1` (stereo not drawn) [TL13-112], in experiment [3], the Kinase hits entry is given as “FER, PTK2, RPS6KA1” and the “Total no. kinase hits” value came to 3.
For `C=CCn1c(=O)c2cnc(Nc3ccc(N4CCN(CCCNc5cccc6c5C(=O)N(C5CCC(=O)NC5=O)C6=O)CC4)cc3)nc2n1-c1cccc(C(C)(C)O)n1` (stereo not drawn) [ZNL-02-096], in experiment [3], the Kinase hits entry was “COQ8A, MKNK2, PAK4, PDK1, PDK2, PDK3, PRKCI, TBCK, WEE1” and the “Total no. kinase hits” value is 9.
For `CNC(=O)c1ccccc1Nc1cc(Nc2ccc(N3CCN(CCOCCOCCNC(=O)CNc4cccc5c4C(=O)N(C4CCC(=O)NC4=O)C5=O)CC3)cc2OC)ncc1C(F)(F)F` (stereo not drawn) [MFH.S.103.1], the “logFC of WEE1” value in experiment [5] is recorded as −0.9694.
As for `O=C(COc1cccc2c1C(=O)N(C1CCC(=O)NC1=O)C2=O)NCCCCCCCC(=O)NC1(c2ccc(-c3nc4ccn5c(=O)[nH]nc5c4cc3-c3ccccc3)cc2)CCC1` (stereo not drawn) [INY-01-140-1], in experiment [3], the “kinases the bifunctional compound degrades” value is “PDK1, PDK2, and PDK3”; the Kinase hits result is “PDK1, PDK2, PDK3”; the “Total no. kinase hits” value was determined as 3.
For the compound `Cc1ncsc1-c1ccc([C@H](C)NC(=O)[C@@H]2C[C@@H](O)CN2C(=O)[C@@H](NC(=O)CCCCOc2ccccc2-c2ccc3nc(-c4cccnc4N)n(-c4ccc(C5(N)CCC5)cc4)c3n2)C(C)(C)C)cc1` [INY-04-125-01], in experiment [3], the “kinases the bifunctional compound degrades” value was “LATS1 and STK17A”; the Kinase hits entry is listed as “LATS1, STK17A”; the “Total no. kinase hits” value stood at 2.
On to `CCc1cnn2c(N(Cc3ccc(N)nc3)C(=O)CCOCCOCCOCCNC(=O)CNc3cccc4c3C(=O)N(C3CCC(=O)NC3=O)C4=O)cc(N3CCCC[C@H]3CCO)nc12` (stereo partly drawn) [MFH-5-115-2], for which, in experiment [3], the “kinases the bifunctional compound degrades” value is “CDK4. AURK4. WEE1. STK17A, PLK1, BUB1, TTK, UHMK1, MAP3K1, BUB1B, RIOK2, NUAK1, PIM2, and CSNK1A1”; the Kinase hits entry is reported as “CDK4, AURK4, WEE1, STK17A, PLK1, BUB1, TTK, UHMK1, MAP3K1, BUB1B, RIOK2, NUAK1, PIM2, CSNK1A1”; the “Total no. kinase hits” value was determined as 14.
Turning to `CN1c2ccccc2C(=O)Nc2cnc(Nc3ccc(N4CCN(C(=O)CCOCCNc5cccc6c5C(=O)N(C5CCC(=O)NC5=O)C6=O)CC4)cc3)nc21` (stereo not drawn) [ZNL-03-127], in experiment [3], the “kinases the bifunctional compound degrades” value was “BLK, LIMK1, LIMK2, STK17A, and TNK2”; the Kinase hits result is listed as “BLK LIMK1, LIMK2 STK17A, TNK2”; the “Total no. kinase hits” value is 5.
Regarding `C[C@@H]1C[C@@H](O)c2ncnc(N3CCN(C(=O)[C@H](CNCCCCCCCCCCc4cccc5c4C(=O)N(C4CCC(=O)NC4=O)C5=O)c4ccc(Cl)cc4)CC3)c21` (stereo partly drawn) [INY-03-041-01], in experiment [3], the Kinase hits entry is given as “AKT1, AKT2, AKT3, CDK4, MAPK6, STK17A” and the “Total no. kinase hits” value is 6.
As for `CC(=O)c1c(C)c2cnc(Nc3ccc(N4CCN(CCCCNC(=O)COc5cccc6c5C(=O)N(C5CCC(=O)NC5=O)C6=O)CC4)cn3)nc2n(C2CCCC2)c1=O` (stereo not drawn) [BSJ-03-204], in experiment [3], the Kinase hits result is “CDK4, CDK6, PDK1, WEE1” and the “Total no. kinase hits” value is listed as 4.
In the case of `Cc1cc(Nc2ncc(Cl)c(Nc3ccccc3S(=O)(=O)C(C)C)n2)c(OC(C)C)cc1C1CCN(CCOCCOCCNC(=O)CNc2cccc3c2C(=O)N(C2CCC(=O)NC2=O)C3=O)CC1` (stereo not drawn) [TI13.112], the “logFC PTK2” value in experiment [3] (Accession Q05397-5, experiment wp012, direction down) is given as −0.6217. The “logFC RPS6KA1 (Q15418-2)” value in experiment [3] (RPS6KA1 protein abundance, degrader vs DMSO, experiment wp012) is −0.7875. For the same compound, the “logFC of FER” value in experiment [4] (FER P16591-1, experiment wp012) is given as −0.5247.
Consider `C[C@@H]1C[C@@H](O)c2ncnc(N3CCN(C(=O)[C@H](CNCCCCCCCCNC(=O)COc4cccc5c4C(=O)N(C4CCC(=O)NC4=O)C5=O)c4ccc(Cl)cc4)CC3)c21` (stereo partly drawn) [INY-02-164], for which, in experiment [3], the Kinase hits result is given as “AKT1, AKT2, AKT3, BCKDK, PDK1” and the “Total no. kinase hits” value stood at 5.
Turning to `Cc1ccc(C(=O)Nc2ccc(CN3CCN(CCOCCOCCNC(=O)CNc4cccc5c4C(=O)N(C4CCC(=O)NC4=O)C5=O)CC3)c(C(F)(F)F)c2)cc1C#Cc1cnc2cccnn12` (stereo not drawn) [TL13-150], in experiment [3], the Kinase hits entry is recorded as “BLK, CDK5, FER, GAK, IRAK1, LCK, MAP4K2, MAPK14, RIPK1, SRC” and the “Total no. kinase hits” value is given as 10.
For `CS(=O)(=O)c1ccc(-c2cccn3nc(Nc4cccc(N5CCN(CCCCCCNC(=O)COc6cccc7c6C(=O)N(C6CCC(=O)NC6=O)C7=O)CC5)c4)nc23)cc1` (stereo not drawn) [JWG-120], in experiment [3], the “kinases the bifunctional compound degrades” value was “AAK1 and AURKA”; the Kinase hits result was “AAK1, AURKA”; the “Total no. kinase hits” value stood at 2.
On to `Cc1ccc(NC(=O)c2cccc(C(F)(F)F)c2)cc1N1Cc2cnc(Nc3ccc(N4CCN(CCCCCC(=O)N[C@H](C(=O)N5C[C@H](O)C[C@H]5C(=O)N[C@@H](C)c5ccc(-c6scnc6C)cc5)C(C)(C)C)CC4)nc3)nc2N(C)C1=O` [DB1114, (2S,4R)-1-((S)-3,3-dimethyl-2-(6-(4-(5-((8-methyl-6-(2-methyl-5-(3-(trifluoromethyl)benzamido)phenyl)-7-oxo-5,6,7,8-tetrahydropyrimido[4,5-d]pyrimidin-2-yl)amino)pyridin-2-yl)piperazin-1-yl)hexanamido)butanoyl)-4-hydroxy-N—((S)-1-(4-(4-methylthiazol-5-yl)phenyl)ethyl)pyrrolidine-2-carboxamide], for which the “Total no. kinase hits” value in experiment [3] is recorded as 31.
